Assay results from the supplement of paper PMC10627819.

How the values were obtained:
S. aureus Newman [1] = assay: fitness (endpoint OD595 vs no drug) (fraction); higher = more growth
Method in brief: (§1)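 Fitness was defined as the optical density at the transition into stationary phase relative to the robust mean of no-drug control wells. Values were capped at 1. Cultures were started at OD595 0.01 in 384-well plates (30 µl, or 55 µl for S. pneumoniae) in TSB, LB Lennox or CY at 37 °C. OD595 was recorded every 30 min over 14 h, with the first reading subtracted as background.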

S. pneumoniae D39V [2] = assay: as above
Method in brief: as §1

B. subtilis 168 = assay: Bliss interaction score (quartile over a dose matrix) (fitness difference); higher = more antagonism (negative = synergy)
Method in brief: (§2)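 Values were capped at 1 after dividing OD595 at stationary-phase entry by the plate's robust no-drug mean. This ratio is fitness, and single-drug fitness was inferred from the combination data. The Bliss score is observed minus product-expected fitness, given as quartiles over technical, biological and donor/recipient replicates.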

S. aureus DSM 20231 = assay: as above
Method in brief: as §2

S. aureus Newman [3] = assay: as above
Method in brief: as §2

S. pneumoniae D39V [4] = assay: as above
Method in brief: as §2
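For Bliss interaction score (quartile over a dose matrix) in this document: first quartile when negative (synergy) and third quartile when positive (antagonism).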

CC1(C)S[C@@H]2[C@H](NC(=O)[C@H](N)c3ccc(O)cc3)C(=O)N2[C@H]1C(=O)O [Amoxicillin] + C/C(=C\C(=O)OCCCCCCCCC(=O)O)C[C@@H]1OC[C@H](C[C@@H]2O[C@H]2[C@@H](C)[C@H](C)O)[C@@H](O)[C@H]1O [Pseudomonic acid]
fitness, one replicate
Conditions	partner 0.03 µg/mL	partner 0.0313 µg/mL	partner 0.06 µg/mL	partner 0.0625 µg/mL	partner 0.12 µg/mL	partner 0.125 µg/mL
S. aureus Newman [1], first compound 0.0625 µg/mL	–	0.0402	–	0.0188	–	0.0414
S. aureus Newman [1], first compound 0.125 µg/mL	–	0.0188	–	0.0167	–	0.0327
S. aureus Newman [1], first compound 0.25 µg/mL	–	0.0112	–	0.0059	–	0.0163
S. pneumoniae D39V [2], first compound 0.006 µg/mL	0.577	–	0.64	–	0.283	–

fitness, S. pneumoniae D39V [2]
Conditions	first compound 0.0008 µg/mL	first compound 0.0015 µg/mL	first compound 0.003 µg/mL
partner 0.03 µg/mL	0.888	0.974	0.932
partner 0.06 µg/mL	0.838	0.822	0.882
partner 0.12 µg/mL	0.586	0.68	–

Conditions	Bliss interaction score
B. subtilis 168	0.0663
S. aureus DSM 20231	0.0169
S. aureus Newman [3]	-0.031
S. pneumoniae D39V [4]	0.121

CC1(C)S[C@@H]2[C@H](NC(=O)[C@H](N)c3ccc(O)cc3)C(=O)N2[C@H]1C(=O)O [Amoxicillin] + CC1=C(C(=O)O)N2C(=O)[C@@H](NC(=O)[C@H](N)c3ccccc3)[C@H]2SC1 [Cephalexin]
fitness
Conditions	partner 0.25 µg/mL	partner 0.5 µg/mL	partner 1 µg/mL	partner 2 µg/mL	partner 4 µg/mL
S. aureus Newman [1], first compound 0.0625 µg/mL	0.877	0.882	0.942	–	–
S. aureus Newman [1], first compound 0.125 µg/mL	0.928	0.921	0.894	–	–
S. aureus Newman [1], first compound 0.25 µg/mL	0.877	0.928	0.888	–	–
S. pneumoniae D39V [2], first compound 0.0015 µg/mL	–	–	0.791	0.337	0.0775
S. pneumoniae D39V [2], first compound 0.003 µg/mL	–	–	0.544	0.125	0.0383

one replicate
Conditions	fitness
S. aureus Newman [1], first compound 0.0625 µg/mL, partner 2 µg/mL	0.864
S. aureus Newman [1], first compound 0.125 µg/mL, partner 2 µg/mL	0.832
S. aureus Newman [1], first compound 0.25 µg/mL, partner 2 µg/mL	0.705
S. pneumoniae D39V [2], first compound 0.0008 µg/mL, partner 0.125 µg/mL	0.978
S. pneumoniae D39V [2], first compound 0.0008 µg/mL, partner 0.25 µg/mL	0.9
S. pneumoniae D39V [2], first compound 0.0008 µg/mL, partner 0.5 µg/mL	0.881
S. pneumoniae D39V [2], first compound 0.0008 µg/mL, partner 1 µg/mL	0.91
S. pneumoniae D39V [2], first compound 0.0008 µg/mL, partner 2 µg/mL	0.494
S. pneumoniae D39V [2], first compound 0.0008 µg/mL, partner 4 µg/mL	0.02
S. pneumoniae D39V [2], first compound 0.0015 µg/mL, partner 0.125 µg/mL	0.922
S. pneumoniae D39V [2], first compound 0.0015 µg/mL, partner 0.25 µg/mL	0.891
S. pneumoniae D39V [2], first compound 0.0015 µg/mL, partner 0.5 µg/mL	0.906
S. pneumoniae D39V [2], first compound 0.003 µg/mL, partner 0.125 µg/mL	0.857
S. pneumoniae D39V [2], first compound 0.003 µg/mL, partner 0.25 µg/mL	0.835
S. pneumoniae D39V [2], first compound 0.003 µg/mL, partner 0.5 µg/mL	0.849
S. pneumoniae D39V [2], first compound 0.006 µg/mL, partner 1 µg/mL	0.0722
S. pneumoniae D39V [2], first compound 0.006 µg/mL, partner 2 µg/mL	0.0153
S. pneumoniae D39V [2], first compound 0.006 µg/mL, partner 4 µg/mL	0.0513

Conditions	Bliss interaction score
B. subtilis 168	0.0616
S. aureus DSM 20231	0.0743
S. aureus Newman [3]	0.0592
S. pneumoniae D39V [4]	-0.0619

CC1(C)S[C@@H]2[C@H](NC(=O)[C@H](N)c3ccc(O)cc3)C(=O)N2[C@H]1C(=O)O [Amoxicillin] + CC(C1CCC(C(O1)OC2C(CC(C(C2O)OC3C(C(C(CO3)(C)O)NC)O)N)N)N)NC [Gentamicin]
fitness, main component drawn
Conditions	partner 0.375 µg/mL	partner 0.5 µg/mL	partner 0.75 µg/mL	partner 1 µg/mL	partner 1.5 µg/mL	partner 2 µg/mL	partner 4 µg/mL	partner 8 µg/mL
S. aureus Newman [1], first compound 0.0625 µg/mL	0.91	0.878	0.896	0.911	0.892	0.972	–	–
S. aureus Newman [1], first compound 0.125 µg/mL	0.984	0.851	≥ 1	0.899	0.974	0.968	–	–
S. aureus Newman [1], first compound 0.25 µg/mL	0.983	0.858	0.944	0.847	0.961	–	–	–
S. pneumoniae D39V [2], first compound 0.0008 µg/mL	–	–	–	–	–	0.977	0.935	0.942
S. pneumoniae D39V [2], first compound 0.0015 µg/mL	–	–	–	–	–	0.988	0.94	0.946
S. pneumoniae D39V [2], first compound 0.003 µg/mL	–	–	–	–	–	0.926	0.9	0.851

fitness, one replicate, main component drawn
Conditions	partner 2 µg/mL	partner 4 µg/mL	partner 8 µg/mL
S. aureus Newman [1], first compound 0.0625 µg/mL	–	0.0669	–
S. aureus Newman [1], first compound 0.125 µg/mL	–	0.0478	–
S. aureus Newman [1], first compound 0.25 µg/mL	–	0.0624	–
S. pneumoniae D39V [2], first compound 0.006 µg/mL	0.587	0.634	0.508

main component drawn
Conditions	Bliss interaction score
B. subtilis 168	-0.0767
S. aureus DSM 20231	0.0684
S. aureus Newman [3]	0.0602
S. pneumoniae D39V [4]	0.055

CC1(C)S[C@@H]2[C@H](NC(=O)[C@H](N)c3ccc(O)cc3)C(=O)N2[C@H]1C(=O)O [Amoxicillin] + CC[C@H](C)[C@H](N)C1=N[C@H](C(=O)N[C@@H](CC(C)C)C(=O)N[C@H](CCC(=O)O)C(=O)N[C@H](C(=O)N[C@H]2CCCCNC(=O)[C@H](CC(N)=O)NC(=O)[C@@H](CC(=O)O)NC(=O)[C@H](Cc3cnc[nH]3)NC(=O)[C@@H](Cc3ccccc3)NC(=O)[C@H]([C@@H](C)CC)NC(=O)[C@@H](CCCN)NC2=O)[C@@H](C)CC)CS1 [Bacitracin]
S. aureus Newman [1], partner 75 µg/mL, main component drawn
Conditions	fitness
first compound 0.0625 µg/mL	0.0143
first compound 0.125 µg/mL	0.0081
first compound 0.25 µg/mL	0.0047

main component drawn
Conditions	Bliss interaction score
B. subtilis 168	-0.101
S. aureus DSM 20231	-0.0167
S. aureus Newman [3]	0.0659
S. pneumoniae D39V [4]	0.104
